Earlier results in US20080293652A1, “Combination of Ad-P53 and Chemotherapy for the Treatment of Tumours” (priority 2004, published 2008).
Numbered stars: 1 amine (or outer) side, 2 acyl side, 3 side chain; on linkers, the order of the positions; unused ones are H or OH. Bridge positions count the residues as written; N and C are the ends. Square brackets hold non-standard residues; d marks the D form. Peptide text beside a SMILES is read from it. I, II: the chains in the order shown. Actinocin(9to1) = Cc1c2oc3c(C)ccc(C(=O)[*:1])c3nc-2c(C(=O)[*:2])c(N)c1=O; NMeV = CN[C@H](C(=O)O)C(C)C; Sar = CNCC(=O)O

Legend:
[1] = for part of the dose excreted / detected intact in the urine: in vivo
multiple myeloma = details: oral administration

| SMILES | part of the dose excreted / detected intact in the urine [1] | other results |
| --- | --- | --- |
| Cc1c2oc3c(C)ccc(C(=O)N[C@@H]4C(=O)N[C@H](C(C)C)C(=O)N5CCC[C@H]5C(=O)N(C)CC(=O)N(C)[C@@H](C(C)C)C(=O)O[C@@H]4C)c3nc-2c(C(=O)N[C@@H]2C(=O)N[C@H](C(C)C)C(=O)N3CCC[C@H]3C(=O)N(C)CC(=O)N(C)[C@@H](C(C)C)C(=O)O[C@@H]2C)c(N)c1=O [Actinomycin D] (I: T[dV]P[Sar][NMeV] / II: T[dV]P[Sar][NMeV]; ester I:1-I:C, II:1-II:C; linker I:N-II:N via Actinocin(9to1)) | 10% | – |
| N[C@@H](Cc1ccc(N(CCCl)CCCl)cc1)C(=O)O [Melphalan, 4-[bis(2-chloroethyl)amino]-L-phenylalanine] | – | part of patients showing a favorable response (multiple myeloma): one third to one half |
| CC[C@]1(O)C[C@H]2CN(CCc3c([nH]c4ccccc34)[C@@](C(=O)OC)(c3cc4c(cc3OC)N(C=O)[C@H]3[C@@](O)(C(=O)OC)[C@H](OC(C)=O)[C@]5(CC)C=CCN6CC[C@]43[C@@H]65)C2)C1 [Vincristine] | – | terminal half-life (clearance from plasma) ([1]; multiphasic clearance): about 24 hours |
| CC[C@]1(O)C[C@@H]2CN(CCc3c([nH]c4ccccc34)[C@@](C(=O)OC)(c3cc4c(cc3OC)N(C)[C@H]3[C@@](O)(C(=O)OC)[C@H](OC(C)=O)[C@]5(CC)C=CCN6CC[C@]43[C@@H]65)C2)C1 [Vinblastine] | Approximately 15% | – |
